Assay results as given in ChEMBL document CHEMBL1201862, “PubChem BioAssay data set” (2004).
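Tested at 5 concentrations; 48 h exposure; 96-well plates; endpoints linearly interpolated, else capped at highest concentration. The concentration for 50% growth inhibition is given as GI50.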 The source made the active and inactive calls. Rule as the data show it: active = GI50 up to about 1.1 µM and inactive = higher.

Legend:
Experiment in all cases: NCI anticancer screen, dose series, 48 h
HCC 2998 = test system: HCC 2998
M14 = test system: M14
SR = test system: SR
SF-539 = test system: SF-539
HCT-116 = test system: HCT-116
HT-29 = test system: HT-29
SNB-78 = test system: SNB-78
LOX IMVI = test system: LOX IMVI
HOP-18 = test system: HOP-18
TK-10 = test system: TK-10
MDA-N = test system: MDA-N
MDA-MB-435 = test system: MDA-MB-435
SK-MEL-5 = test system: SK-MEL-5
UACC-257 = test system: UACC-257
OVCAR-5 = test system: OVCAR-5
UACC-62 = test system: UACC-62
K562 = test system: K562
XF498 = test system: XF498
IGROV-1 = test system: IGROV-1
UO-31 = test system: UO-31

SMILES: COc1c(C=O)c2c(c(OC)c1OC)-c1ccc(OC)c(=O)cc1[C@@H](NC(C)=O)CC2
- GI50 (HCC 2998): 0.0637 µM (active)
- GI50 (M14): 0.051 µM (active)
- GI50 (SR): < 0.01 µM (active)
- GI50 (SF-539): 0.0237 µM (active)
- GI50 (HCT-116): 0.0174 µM (active)
- GI50 (HT-29): 0.0255 µM (active)
- GI50 (SNB-78): < 0.0147 µM (active)
- GI50 (LOX IMVI): 0.015 µM (active)
- GI50 (HOP-18): 21.6 µM (inactive)
- GI50 (TK-10): 3.83 µM (inactive)
- GI50 (MDA-N): < 0.01 µM (active)
- GI50 (MDA-MB-435): < 0.01 µM (active)
- GI50 (SK-MEL-5): 0.0241 µM (active)
- GI50 (UACC-257): 0.0826 µM (active)
- GI50 (OVCAR-5): 3.78 µM (inactive)
- GI50 (UACC-62): 0.0412 µM (active)
- GI50 (K562): < 0.0126 µM (active)
- GI50 (XF498): 0.0773 µM (active)
- GI50 (IGROV-1): 0.0461 µM (active)
- GI50 (UO-31): 11.5 µM (inactive)

SMILES: CC1C(=O)C(C)C(c2ccccc2)N(N=O)C1c1ccccc1 (stereo not given)
- GI50 (HCC 2998): > 100 µM (inactive)
- GI50 (M14): 283 µM (inactive)
- GI50 (SR): > 439 µM (inactive)
- GI50 (SF-539): 86.5 µM (inactive)
- GI50 (HCT-116): 127 µM (inactive)
- GI50 (HT-29): > 570 µM (inactive)
- GI50 (SNB-78): > 47 µM (inactive)
- GI50 (LOX IMVI): > 533 µM (inactive)
- GI50 (HOP-18): > 100 µM (inactive)
- GI50 (TK-10): 207 µM (inactive)
- GI50 (MDA-N): 134 µM (inactive)
- GI50 (MDA-MB-435): 157 µM (inactive)
- GI50 (SK-MEL-5): > 410 µM (inactive)
- GI50 (UACC-257): > 548 µM (inactive)
- GI50 (OVCAR-5): > 527 µM (inactive)
- GI50 (UACC-62): > 475 µM (inactive)
- GI50 (K562): > 883 µM (inactive)
- GI50 (XF498): 19.4 µM (inactive)
- GI50 (IGROV-1): > 72.9 µM (inactive)
- GI50 (UO-31): > 21.1 µM (inactive)

SMILES: CCc1cccc(CC)c1NC(=S)NC(=O)c1ccc(Br)cc1
- GI50 (HCC 2998): 33.2 µM (inactive)
- GI50 (M14): 26.8 µM (inactive)
- GI50 (SR): 20.3 µM (inactive)
- GI50 (SF-539): 33.1 µM (inactive)
- GI50 (HCT-116): 28.8 µM (inactive)
- GI50 (HT-29): 36.9 µM (inactive)
- GI50 (SNB-78): 64.7 µM (inactive)
- GI50 (LOX IMVI): > 39.4 µM (inactive)
- GI50 (HOP-18): 49.9 µM (inactive)
- GI50 (TK-10): 25.3 µM (inactive)
- GI50 (MDA-N): 30.4 µM (inactive)
- GI50 (MDA-MB-435): 23 µM (inactive)
- GI50 (SK-MEL-5): 26.4 µM (inactive)
- GI50 (UACC-257): 32.2 µM (inactive)
- GI50 (OVCAR-5): > 50.4 µM (inactive)
- GI50 (UACC-62): 19.7 µM (inactive)
- GI50 (K562): 40.7 µM (inactive)
- GI50 (XF498): 26.3 µM (inactive)
- GI50 (IGROV-1): 27.9 µM (inactive)
- GI50 (UO-31): 26.3 µM (inactive)

SMILES: Cn1nnc2c(C(N)=O)ncn2c1=O [TEMOZOLOMIDE]
- GI50 (HCC 2998): > 100 µM (inactive)
- GI50 (M14): > 100 µM (inactive)
- GI50 (SR): > 100 µM (inactive)
- GI50 (SF-539): > 100 µM (inactive)
- GI50 (HCT-116): > 100 µM (inactive)
- GI50 (HT-29): > 100 µM (inactive)
- GI50 (SNB-78): > 100 µM (inactive)
- GI50 (LOX IMVI): 82 µM (inactive)
- GI50 (HOP-18): > 100 µM (inactive)
- GI50 (TK-10): > 100 µM (inactive)
- GI50 (MDA-N): > 100 µM (inactive)
- GI50 (MDA-MB-435): > 100 µM (inactive)
- GI50 (SK-MEL-5): > 100 µM (inactive)
- GI50 (UACC-257): > 100 µM (inactive)
- GI50 (OVCAR-5): > 100 µM (inactive)
- GI50 (UACC-62): > 100 µM (inactive)
- GI50 (K562): 75.9 µM (inactive)
- GI50 (XF498): > 100 µM (inactive)
- GI50 (IGROV-1): > 100 µM (inactive)
- GI50 (UO-31): > 74 µM (inactive)
